Among the data in the METLIN SMRT retention time set (Domingo-Almenara et al. 2019) are RP-LC retention time values, retold here.

This data set in a line: gradient 5% acetonitrile 3 min, to 50% in 2 min, to 85% in 15 min, held 3 min, 100 µL/min. As to conditions: column: Zorbax Extend-C18 2.1 x 50 mm; eluents: water / acetonitrile, 0.1% formic acid. In short, it runs like this:
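Retention times of pure standards were taken from adduct peaks that were selected by computer and manually inspected. Over 3 months, mixtures of ~100 molecules were run by HPLC–quadrupole time-of-flight mass spectrometry in positive and negative ionization mode. The Zorbax Extend-C18 column (2.1 × 50 mm, 1.8 μm) ran at 100 μL/min in water and acetonitrile, each containing 0.1% formic acid, with 40 μL dead volume and 900 μL dwell volume.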
`CC(C)S(=O)(=O)c1cc2c(cc1NC(=O)c1ccccc1C(F)(F)F)n(C)c(=O)n2C` came in with an RP-LC retention time of 853 s.

Regarding `Cc1noc(CNC(=O)C2CCN(C(=O)CSc3nc4ccccc4s3)CC2)n1`, the RP-LC retention time came to 665 s.

Regarding `CCn1cc(-c2ccc(F)cc2)cc1C(=O)N1CCCC1`, the RP-LC retention time is 959 s.

Regarding `CCn1c(=O)c(N2CCC(NC(=O)Nc3ccc(Br)cc3)CC2)nc2ccccc21`, the RP-LC retention time stood at 1020 s.

In turn, `O=C(OCn1nnc2ccccc2c1=O)c1ccc(S(=O)(=O)N2CCCCC2)cc1` showed an RP-LC retention time of 936 s.

`CN(C)C(=O)c1ccc2c(c1)N(CC(=O)Nc1ccccc1Cl)C(=O)CS2` yielded an RP-LC retention time of 705 s.

For the molecule `O=C(Cn1ccc2ccccc21)NCCn1ncccc1=O`, the RP-LC retention time is 625 s.

Molecule `CNC(=O)[C@H]1O[C@@H](n2cnc3c(NCc4cccc(I)c4)ncnc32)C(O)[C@H]1O` (some centres undefined) displayed an RP-LC retention time of 730 s.

In turn, `CCCNC(=O)c1cnn(-c2cc(-c3nc(C4CC4)no3)ccn2)c1C` had an RP-LC retention time of 911 s.

In the case of `CCc1ccc(S(=O)(=O)N2CCCN(C)c3ccccc32)cc1`, the RP-LC retention time was found to be 1100 s.

In turn, `Cc1cccc(OCC(=O)Nc2ccc3c(c2)Sc2ncccc2C(=O)N3C(C)C)c1` yielded an RP-LC retention time of 972 s.

In the case of `O=c1c2nc(-c3ccccc3)cn2ccn1-c1ccc(Cl)cc1`, the RP-LC retention time came to 841 s.

`COCn1c(-c2ccc(OC)c(OC)c2)nc2ccccc21` had an RP-LC retention time of 573 s.

In turn, `CCC(=O)Nc1c(C)noc1/C=C\c1ccc(S(=O)(=O)N2CCN(c3ccccn3)CC2)cc1` had an RP-LC retention time of 646 s.

`O=C(CN1CCN(c2ccccn2)CC1)Nc1ccc(F)c(F)c1` showed an RP-LC retention time of 576 s.

On to `O=C(NC1CCN(c2nnc3ccc(Cl)cn23)CC1)c1ccco1`, for which the RP-LC retention time turned out to be 606 s.

Take `CN1C(=O)c2cccnc2Sc2cc(NC(=O)C(C)(C)C)ccc21`: the RP-LC retention time was determined as 735 s.

With `Cc1ccc(CNC(=O)C2CCCN(c3nc4ncccc4n4cccc34)C2)cc1` (centres undefined), the RP-LC retention time stood at 640 s.

As for `COCCN1C(=O)CCc2cc(NC(=O)c3ccc(Cl)s3)ccc21`, the RP-LC retention time was 958 s.

`CCOc1ccccc1NC(=O)C1CCN(S(=O)(=O)c2ccc3c(c2)NC(=O)C(C)O3)CC1` (centres undefined) had an RP-LC retention time of 897 s.

On to `Cc1ccc(-c2nc(NCCC3=CCCCC3)c3ccccc3n2)cc1`, for which the RP-LC retention time stood at 974 s.

`CCc1nc(-c2cc3ccccc3nc2N2CCN(c3ccc(OC)cc3)CC2)no1`: the RP-LC retention time was 687 s.

On to `CC(=O)c1cccc(NC(=O)Cn2cncc(C)c2=O)c1`, for which the RP-LC retention time turned out to be 598 s.

As for `Cc1ccccc1C(=O)N1C(C(=O)NCC(C)C)COC12CCN(C(=O)C(C)(C)C)CC2` (centres undefined), the RP-LC retention time stood at 782 s.

Turning to `COc1ccc(CCC(=O)N2CCC3(C2)C(=O)Nc2ccc(OC)cc23)cc1` (centres undefined), the RP-LC retention time is 751 s.

For `N#Cc1cccc(CN2CCC(c3nncn3-c3ccccc3)CC2)c1`, the RP-LC retention time came out at 584 s.

Turning to `CSc1ccc(CNC(=O)C2CCCN(C(=O)c3[nH]c(C)c(C(=O)OC(C)C)c3C)C2)cc1` (centres undefined), the RP-LC retention time is 929 s.

`COC(=O)c1cccc(Nc2c(-c3ccc(C)cc3)nc3cnc(Br)cn23)c1` came in with an RP-LC retention time of 994 s.

Molecule `O=C(NCCCN1CCCC1=O)C(=O)Nc1nccs1` returned an RP-LC retention time of 578 s.

`CC1(c2noc(C3CC3)n2)CCN(C(=O)CCc2cc(Cl)no2)CC1`: the RP-LC retention time was 853 s.

Take `CCC(C(=O)NCCc1c[nH]c2ccc(OC)cc12)n1c2ccccc2c2cnn(C)c(=O)c21` (centres undefined): the RP-LC retention time was determined as 890 s.

Molecule `COc1ccccc1N1CCN(c2cc(SCC(=O)Nc3cccc(SC)c3)ncn2)CC1` registered an RP-LC retention time of 1020 s.

The molecule `Cc1ccc(C)c(N2CCN(S(=O)(=O)c3cc(-c4nnc(C5CC5)o4)co3)CC2)c1` showed an RP-LC retention time of 1140 s.

In turn, `COc1ccc(NC(=O)Cn2nc3nc(N4CCSCC4)ccn3c2=O)cc1OC` showed an RP-LC retention time of 639 s.

`COc1ccc2c(c1)C1(CCN(C(=O)c3ccccc3Br)C1)C(=O)N2` (centres undefined) came in with an RP-LC retention time of 750 s.

In the case of `O=C1[C@H]2CCCC[C@H]2C(=O)N1CCCCN1CCN(c2nsc3ccccc23)CC1`, the RP-LC retention time was determined as 775 s.

Molecule `Cc1cc(C)c2c(N(C)C)nc(C(=O)NCCN(C)C3CCCCC3)nc2n1` came in with an RP-LC retention time of 562 s.

As to `CCOC(=O)c1sc2ncnc(N3CCc4ccccc4C3)c2c1C`, the RP-LC retention time amounted to 1310 s.

The molecule `CCCN1C(=O)COc2cc(-c3noc(C(=O)NCCC4=CCCCC4)n3)ccc21` yielded an RP-LC retention time of 1180 s.

Take `CN(C)C(=O)c1csc(S(=O)(=O)N2CCC(C(=O)NCc3cccs3)CC2)c1`: the RP-LC retention time was determined as 718 s.

Take `COCCNC(=O)N1CC(c2nc(-c3cccnc3)no2)C2(CCOCC2)C1` (centres undefined): the RP-LC retention time amounted to 596 s.

As to `COCCCNC(=O)c1ccc(N2CCCN(Cc3ccccc3C)C2=O)cc1`, the RP-LC retention time is 769 s.

Consider `CN1C(=O)c2cccnc2Sc2cc(NC(=O)C3(c4ccccc4)CC3)ccc21`, for which the RP-LC retention time worked out at 875 s.

On to `CC(C)CNS(=O)(=O)c1ccc(-c2nnc(C3CC3)o2)o1`, for which the RP-LC retention time turned out to be 809 s.

Turning to `CCCCC(=O)N1CCN(C2CCN(CCC(C)C)C2=O)CC1` (centres undefined), the RP-LC retention time was 585 s.

The molecule `Cc1cc(Cl)ccc1NC(=O)CCc1c(C)nn(-c2cc(N(C)C)ncn2)c1C` came in with an RP-LC retention time of 862 s.

In turn, `COCCOC(=O)C1=C(C)NC(=O)NC1c1cn(-c2ccccc2)nc1-c1cccs1` (centres undefined) gave an RP-LC retention time of 742 s.

Take `CCN(CC)S(=O)(=O)c1ccc2nc(N3CCN(C4CCCCC4)CC3)cnc2c1`: the RP-LC retention time was 674 s.

The molecule `CCOC(=O)C1CCCN(C(=O)c2ccc(-c3csc(CC)n3)cc2)C1` (centres undefined) yielded an RP-LC retention time of 925 s.

`CCCn1cc(CCNS(=O)(=O)Cc2ccc(F)cc2Cl)c2cccnc21`: the RP-LC retention time was found to be 900 s.

On to `Cc1ccc(Oc2nccn3c(=O)n(CC(=O)NCCCc4ccccc4)nc23)cc1`, for which the RP-LC retention time is 928 s.

In the case of `O=C(Nc1cccc(Br)c1)c1cc(-c2ccccn2)n[nH]1`, the RP-LC retention time was determined as 843 s.

`O=C(Nc1ccc(-c2nc3cccnc3s2)cc1)c1ccccc1Cl` showed an RP-LC retention time of 893 s.

For `COc1ccc(NS(=O)(=O)c2cc3c(s2)CCN(C(=O)C2CCC2)C3)cc1`, the RP-LC retention time is 831 s.

In turn, `O=C(COc1ccccc1[N+](=O)[O-])N(Cc1ccccc1)Cc1ccccc1` gave an RP-LC retention time of 1000 s.

As to `CCc1ccc(S(=O)(=O)N2CCCC2c2nc(-c3cccc(C)c3)no2)cc1` (centres undefined), the RP-LC retention time worked out at 1260 s.

Turning to `COc1ccc(-c2noc(Cn3ccn(-c4ccc(Cl)cc4)c(=O)c3=O)n2)cc1OC`, the RP-LC retention time worked out at 803 s.

Molecule `CC(C)n1cc(S(=O)(=O)Nc2ccc(Cl)cc2)c2cccnc21` gave an RP-LC retention time of 862 s.

In turn, `CCN(CC)CCNC(=O)C1CCCN(c2ncc(-c3ccc(F)cc3)cn2)C1` (centres undefined) displayed an RP-LC retention time of 688 s.

`O=C(CCSc1ccccc1)Nc1cccc(-c2ccn[nH]2)c1` returned an RP-LC retention time of 769 s.

`Cc1nc2cccnc2n1C1CCN(C(=O)Nc2ccc(F)cc2)CC1` displayed an RP-LC retention time of 640 s.

In the case of `O=C(c1cccs1)N1CCc2c([nH]c3ccccc23)C1c1ccc(F)cc1` (centres undefined), the RP-LC retention time came to 1150 s.

For the molecule `COc1ccc(-c2nc(CN3CCCC3=O)no2)cc1`, the RP-LC retention time stood at 735 s.

`CCc1noc(NC(C)=O)c1-c1ccc(C)c(S(=O)(=O)N2CCN(c3cc(C)ccc3C)CC2)c1` returned an RP-LC retention time of 1130 s.

`O=C(Nc1nnc(C2CC(=O)N(c3ccccc3)C2)o1)c1ccccc1Cl` (centres undefined) gave an RP-LC retention time of 807 s.

`Cc1ccc(Nc2nc3ccncc3n(C(C)C)c2=O)cc1Cl` had an RP-LC retention time of 771 s.

As for `CCN(CC)C(=O)c1cnc2snc(C)c2c1N1CCC(C(=O)Nc2c(C)cc(C)cc2C)CC1`, the RP-LC retention time came to 901 s.

Regarding `NCC(O)COc1cccc2ccccc12` (centres undefined), the RP-LC retention time was 679 s.

In turn, `O=C(Cn1cccc(-c2nc(-c3ccc(Br)cc3)no2)c1=O)NC1CCCC1` registered an RP-LC retention time of 896 s.

For the molecule `CCC(=O)Nc1ccc(-n2cnc(C(=O)N3CCN(c4ccccc4OC)CC3)c2)nc1`, the RP-LC retention time is 667 s.

Turning to `Cn1cc(S(=O)(=O)N2CCC(C(=O)NCc3cccnc3)CC2)cc1C(=O)N1CCCC1`, the RP-LC retention time amounted to 674 s.

As to `O=C(Nc1ccc2c(c1)CCN(Cc1ncn[nH]1)C2)c1ccccc1-c1ccc(C(F)(F)F)cc1`, the RP-LC retention time was 755 s.

Molecule `Cc1ccccc1-c1nc2cnccn2c1NCCC(=O)NCC(C)C` had an RP-LC retention time of 636 s.

On to `CCCN1C(=O)COc2ccc(-c3csc(NC(=O)c4ccc(F)cc4)n3)cc21`, for which the RP-LC retention time stood at 1060 s.

As for `COc1ccc(Cc2nc(-c3ccc4oc(C)nc4c3)no2)cc1OC`, the RP-LC retention time amounted to 892 s.

The molecule `O=C(Cc1csc2nc(-c3ccccc3)cn12)Nc1ccccc1F` yielded an RP-LC retention time of 764 s.

On to `CC1(C)COc2ccc(NC(=O)c3c(F)cccc3Cl)cc2NC1=O`, for which the RP-LC retention time came out at 810 s.

With `CCCN(C)c1nccnc1OC1CCN(C(=O)CC(C)C)C1` (centres undefined), the RP-LC retention time was determined as 835 s.

On to `O=C1CCN(C(=O)COc2ccc(Cl)cc2Cl)c2ccccc2N1`, for which the RP-LC retention time came out at 792 s.
